The source made the active and inactive calls. The calls are words filed in the database; no cut-off is given here.
Legend:
[1] = biological target: T1, Protein cereblon/Bromodomain-containing protein 4 (Homo sapiens) (UniProt O60885+Q96SW2); assay: Protac activity at CRBN/BRD4 in human MV4-11 cells assessed as induction of BRD4 protein degradation by measuring residual activity at 30 nM measured after 6 hrs by Western blot analysis (reference value: 100%); type: cell-based
[2] = biological target: T1, Protein cereblon/Bromodomain-containing protein 4 (Homo sapiens); assay: Protac activity at CRBN/BRD4 in human MV4-11 cells assessed as induction of BRD4 protein degradation by measuring residual activity at 0.003 uM incubated for 3 hrs by Western blot analysis relative to control; type: cell-based
[3] = biological target: T1, Protein cereblon/Bromodomain-containing protein 4 (Homo sapiens); assay: Protac activity at CRBN/BRD4 in human MM1.S cells assessed as induction of BRD4 protein degradation by measuring residual activity at 300 nM measured after 6 hrs by Western blot analysis (reference value: 100%); type: cell-based
[4] = biological target: T1, Protein cereblon/Bromodomain-containing protein 4 (Homo sapiens); assay: (§1) Protac activity at CRBN/BRD4 in human MV4-11 cells assessed as induction of BRD4 protein degradation by measuring residual activity at 30 nM preincubated with lenalidomide for 2 hrs followed by compound addition and measured after 6 hrs by Western blot analysis (reference value: 100%); type: cell-based
[5] = biological target: T1, Protein cereblon/Bromodomain-containing protein 4 (Homo sapiens); assay: as §1, with “MM1.S” for “MV4-11”, “300” for “30”, “tert-butyl (S)-2-(4-(4-chlorophenyl)-2,3,9-trimethyl-6H-thieno[3,2-f][1,2,4]triazolo[4,3-a][1,4]diazepin-6-yl)acetate” for “lenalidomide”; type: cell-based
MRC5 = assay: Inhibition of TGF-beta induced activation of human MRC5 cells assessed as downregulation of alpha-SMA protein expression at 0.1 to 10 uM by Western blot analysis; type: functional, cell-based; details: dose 0.1-10 µM
MM1.S = assay: Antiproliferative activity against human MM1.S cells assessed as inhibition of cell growth incubated for 72 hrs MTS assay; type: functional, cell-based
[6] = Inhibition of TGF-beta induced activation of human MRC5 cells assessed as residual BRD4 protein level at 10 uM by Western blot analysis (reference value: 100%); type: functional
[7] = biological target: T1, Protein cereblon/Bromodomain-containing protein 4 (Homo sapiens); assay: Protac activity at CRBN/BRD4 in human MV4-11 cells assessed as induction of BRD4 protein degradation by measuring residual activity at 30 nM measured after 1 hr by Western blot analysis (reference value: 100%); type: cell-based
[8] = biological target: T1, Protein cereblon/Bromodomain-containing protein 4 (Homo sapiens); assay: Protac activity at CRBN/BRD4 in human MV4-11 cells assessed as induction of BRD4 protein degradation by measuring residual activity at 30 nM measured after 3 hrs by Western blot analysis (reference value: 100%); type: cell-based
[9] = Inhibition of TGF-beta induced activation of human MRC5 cells assessed as residual BRD4 protein level at 0.1 uM by Western blot analysis (reference value: 96%); type: functional

T1 sequence (Q96SW2 whole entry, looked up, other chains not shown): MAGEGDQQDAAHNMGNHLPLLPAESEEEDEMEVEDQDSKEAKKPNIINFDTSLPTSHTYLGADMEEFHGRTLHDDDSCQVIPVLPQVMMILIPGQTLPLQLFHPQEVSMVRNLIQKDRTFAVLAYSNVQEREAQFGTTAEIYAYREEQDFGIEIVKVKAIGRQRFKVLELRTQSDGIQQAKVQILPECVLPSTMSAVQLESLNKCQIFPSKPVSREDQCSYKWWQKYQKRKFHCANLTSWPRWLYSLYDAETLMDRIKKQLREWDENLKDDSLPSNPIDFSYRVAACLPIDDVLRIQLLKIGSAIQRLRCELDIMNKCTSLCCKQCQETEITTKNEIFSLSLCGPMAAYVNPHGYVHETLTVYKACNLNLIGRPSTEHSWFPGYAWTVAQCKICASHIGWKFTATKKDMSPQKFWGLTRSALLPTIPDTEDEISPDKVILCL

Compound `Cc1sc2c(c1C)C(c1ccc(Cl)cc1)=N[C@@H](CC(=O)NCCCCC(=O)NCCNc1cccc3c1C(=O)N(C1CCC(=O)NC1=O)C3=O)c1nnc(C)n1-2` (stereo partly specified) has an Activity [1] of 13%, an Activity [2] of 66% and an Activity [3] of 17%. The Activity [4] was 85%, the Activity [5] was 61% and the inhibition (MRC5) was “Active”. The IC50 (MM1.S) was 27 nM, the Activity [6] was 25% and the Activity [7] was 62%. It also gave an Activity [8] of 72% and an Activity [9] of 31%.

Source: ChEMBL document CHEMBL5236646, “Design, synthesis, and biological evaluation of BRD4 degraders” (Bioorg Med Chem, 2023)
